Results: patent publication US20250304623A1, “PEPTIDES FOR INTRACELLULAR DELIVERY” (UNIVERSIDADE DE SANTIAGO DE COMPOSTELA, priority 2022, published 2025)
*: point of attachment. NHNH2 = NN*

Experiments:
Format in all cases: cell-based
[1] = tested on: Hek293 cells expressing EGFP; assay: Cas9-RNP delivery against EGFP (gene editing, plate reader), Hek293
Description: (§1) To generate an EGFP expressing HeLa cell line, HeLa cells were transfected with EGFP pDNA (pEGFP-C1, Clontech) and stable transfectants were selected with 400 μg/mL of G-418 (Millipore). Green clones were selected by epifluorescence microscopy and tested for EGFP expression stability through several passages. […] All other EGFP-expressing cell lines were obtained in a similar way from parent non-EGFP-expressing cell lines.
Cells expressing EGFP were seeded in a 96 well plate the day before the experiment at a concentration of 50,000 cell/mL (100 μL/w) in DMEM+10% FBS+1% Gln-Abt. For robotic library screening, the delivery of Cas9-RNP against EGFP (RNP designed to knock-out the gene encoding for the enhanced green fluorescent protein (EGFP)) was performed. For RNP assembly, 9.2 μL of crRNA and 9.2 μL of tracrRNA were mixed in 211.6 μL of Nuclease-Free Duplex Buffer (IDT), incubated for 5 min at 95° C. and slowly cooled at rt (see I. Lostalé-Seijo, et al. Peptide/Cas9 nanostructures for ribonucleoprotein cell membrane transport and gene edition, Chem. Sci., 2017). Cas9 protein was dissolved in DMEM at a final concentration of 4 μM and equal volumes of the RNA complex and Cas9 were mixed and incubated for 5 min at rt. 75 μL of the corresponding amphiphile concentrations were added to 5 μL of RNP at 2 μM. The mixture was shaken for 30 min at room temperature before the addition to the cells. The cell medium was aspirated, and cells were washed twice with PBS. Cells were covered with 30 μL of DMEM and 20 μL of the RNP/amphiphile complexes were added to the cells (final peptide concentrations=2.5, 5 and 10 μM; final Cas9-RNP concentration=50 nM) and incubated for 4 h. After the incubation, the medium was replaced by 100 μL of fresh DMEM supplemented with 10% FBS. The total EGFP fluorescence was quantified after 72 h in a plate reader (FIG. 2, Table 1 (right) and Table 6). All experiments were done in triplicate. […]
(§2) Tables 26-31 show the mean (triplicates) percentage of gene editing, accounted by GFP fluorescence intensity decrease (% of reduction), measured after the transfection of Cas9-RNP by different amphiphiles at different concentrations in a variety of cell lines. Background values, accounted by untreated control cells, were subtracted for processing.

HCT116 cells = assay: EGFP mRNA delivery, robotic library screening, HCT116
Description: Cells were seeded in a 96 well plate the day before the experiment at a concentration of 50,000 cell/mL (100 μL/w) in DMEM+10% FBS+1% Gln-Abt. For robotic library screening, the delivery of EGFP-mRNA (from TriLink, fully substituted with 5-methoxyuridine, capped and polyadenylated; TriLink, CleanCap® EGFP mRNA (5moU), ref. L-7201) in six different cell lines was performed. Amphiphilic molecule stock solutions were prepared in DMSO as described above and diluted in DMEM to afford a range of concentrations. The solutions of EGFP-mRNA/amphiphilic molecule complexes were freshly prepared prior to the transfection experiments. 35 μL of the corresponding amphiphile were added to 10 μL of a solution of EGFP-mRNA at 10 ng/μL in DMEM. The mixture was shaken for 30 min at room temperature before the addition to the cells. The cell medium was aspirated, and cells were washed with PBS twice. Cells were covered with 39 μL of DMEM and 11 μL of the complex's solution were added to the cells and incubated for 4 h (final concentration of peptide=2.5, 5 and 10 μM; final concentration of EGFP-mRNA=25 ng/well). After the incubation, the medium was replaced by 100 μL of fresh DMEM supplemented with 10% FBS. The total EGFP fluorescence was quantified after 72 h in a well plate reader. Amphiphile transfection efficiency was compared and normalized to Lipofectamine® MessengerMax efficiency (value of 1 in Tables 1-5 and 7; double underlined numbers). All experiments were done in triplicate.
(§3) Tables 1-7: RLuc (pDNA) or EGFP (mRNA) expression levels were normalized to Lipofectamine reagents (value=1) and expressed as fold-times signal increase. In the case of siRNA, the siRNA treated cells fluorescence was compared with siMOCK control fluorescence, while Cas9-RNP mediated knockout was measured against the fluorescence of untreated cells. In both siRNA and Cas9-RNP, values are expressed as % fluorescence reduction. Amphiphile concentration was 5 μM in all cases. All experiments were performed in triplicate.
Tables 14-19 show the mean (triplicates) fluorescence intensity measured after the transfection of EGFP mRNA by different amphiphiles at different concentrations in a variety of cell lines. Background fluorescence values, accounted by untreated control cells, were subtracted for processing.

[2] = tested on: Hela cells expressing EGFP; assay: Cas9-RNP delivery against EGFP (gene editing, plate reader), HeLa; conditions: for % GFP silencing due to gene editing (Cas9-RNP): HeLa
Description: as §1
Cells expressing EGFP were seeded in a 96 well plate the day before the experiment at a concentration of 50,000 cell/mL (100 μL/w) in DMEM+10% FBS+1% Gln-Abt. For robotic library screening, the delivery of Cas9-RNP against EGFP (RNP designed to knock-out the gene encoding for the enhanced green fluorescent protein (EGFP)) was performed. For RNP assembly, 9.2 μL of crRNA and 9.2 μL of tracrRNA were mixed in 211.6 μL of Nuclease-Free Duplex Buffer (IDT), incubated for 5 min at 95° C. and slowly cooled at rt (see I. Lostalé-Seijo, et al. Peptide/Cas9 nanostructures for ribonucleoprotein cell membrane transport and gene edition, Chem. Sci., 2017). Cas9 protein was dissolved in DMEM at a final concentration of 4 μM and equal volumes of the RNA complex and Cas9 were mixed and incubated for 5 min at rt. 75 μL of the corresponding amphiphile concentrations were added to 5 μL of RNP at 2 μM. The mixture was shaken for 30 min at room temperature before the addition to the cells. The cell medium was aspirated, and cells were washed twice with PBS. Cells were covered with 30 μL of DMEM and 20 μL of the RNP/amphiphile complexes were added to the cells (final peptide concentrations=2.5, 5 and 10 μM; final Cas9-RNP concentration=50 nM) and incubated for 4 h. After the incubation, the medium was replaced by 100 μL of fresh DMEM supplemented with 10% FBS. The total EGFP fluorescence was quantified after 72 h in a plate reader (FIG. 2, Table 1 (right) and Table 6). All experiments were done in triplicate.
as §3, §2

[3] = Petroselinyl, 15 μM, Hela cells

For “Ac-RRHK*RLK*RRLK*RL-NH2 (Ac-RRHK(NHNH2)RLK(NHNH2)RRLK(NHNH2)RL-NH2; not fully specified; printed as Ac-RRHK*RLK*RRLK*RL-NH2; also: K*4,K*7,K*11: native or modified lysine (ε-amide to a linker)) [13(Leu-His)]”, the “percentage of gene editing, GFP fluorescence intensity decrease (% of reduction)” value ([1]; Myristoleyl, 10 μM) was −16%, the “percentage of gene editing, GFP fluorescence intensity decrease (% of reduction)” value ([1]; Oleyl, 10 μM) was −4% and the “percentage of gene editing, GFP fluorescence intensity decrease (% of reduction)” value ([1]; Palmitoleyl, 5 μM) was −8%. The “percentage of gene editing, GFP fluorescence intensity decrease (% of reduction)” value ([1]; Palmitoleyl, 10 μM) was −33%, the “percentage of gene editing, GFP fluorescence intensity decrease (% of reduction)” value ([1]; Palmitoleyl, 15 μM) was −39% and the “percentage of gene editing, GFP fluorescence intensity decrease (% of reduction)” value ([1]; Petroselinyl, 5 μM) was 16%. For the same substance, the “percentage of gene editing, GFP fluorescence intensity decrease (% of reduction)” value ([1]; Petroselinyl, 10 μM) was 7%, the “percentage of gene editing, GFP fluorescence intensity decrease (% of reduction)” value ([1]; Petroselinyl, 15 μM) was −32% and the “mean fluorescence intensity (EGFP mRNA)” value (HCT116 cells; Myristoleyl, 2.5 μM) was 2385. For the same substance, the “mean fluorescence intensity (EGFP mRNA)” value (HCT116 cells; Palmitoleyl, 5 μM) was 642, the “mean fluorescence intensity (EGFP mRNA)” value (HCT116 cells; Petroselinyl, 5 μM) was 428 and the “mean fluorescence intensity (EGFP mRNA)” value (HCT116 cells; Petroselinyl, 10 μM) was 149. The “% GFP silencing due to gene editing (Cas9-RNP)” value (“% GFP silencing due” for short) ([2]; 5 μM, Myr tail) was 73%, the “percentage of gene editing, GFP fluorescence intensity decrease (% of reduction)” value ([2]; Myristoleyl, 5 μM, HeLa cells) was 16% and the “percentage of gene editing, GFP fluorescence intensity decrease (% of reduction)” value ([2]; Myristoleyl, 10 μM, HeLa cells) was 73%. The “percentage of gene editing, GFP fluorescence intensity decrease (% of reduction)” value ([2]; Petroselinyl, 5 μM, HeLa cells) was 39%, the “percentage of gene editing, GFP fluorescence intensity decrease (% of reduction)” value ([2]; Petroselinyl, 10 μM, Hela cells) was 74% and the “percentage of gene editing, GFP fluorescence intensity decrease (% of reduction)” value [2, 3] was 81%.
In the case of Ac-RRLK*RLK*RRLK*RL-NH2 [Peptide 13.3], the “percentage of gene editing, GFP fluorescence intensity decrease (% of reduction)” value ([1]; Dodecanal, 5 μM) is reported as 18%, the “percentage of gene editing, GFP fluorescence intensity decrease (% of reduction)” value ([1]; Dodecanal, 10 μM) is reported as −18% and the “percentage of gene editing, GFP fluorescence intensity decrease (% of reduction)” value ([1]; Myristoleyl, 5 μM) is reported as −12%. For the same substance, the “percentage of gene editing, GFP fluorescence intensity decrease (% of reduction)” value ([1]; Myristoleyl, 15 μM) was −48%, the “percentage of gene editing, GFP fluorescence intensity decrease (% of reduction)” value ([1]; Palmitoleyl, 5 μM) was −7% and the “mean fluorescence intensity (EGFP mRNA)” value (HCT116 cells; Myristoleyl, 2.5 μM) was 2744. For the same substance, the “mean fluorescence intensity (EGFP mRNA)” value (HCT116 cells; Palmitoleyl, 2.5 μM) was 1623, the “mean fluorescence intensity (EGFP mRNA)” value (HCT116 cells; Petroselinyl, 2.5 μM) was 1178 and the “mean fluorescence intensity (EGFP mRNA)” value (HCT116 cells; Petroselinyl, 5 μM) was 1100. The “mean fluorescence intensity (EGFP mRNA)” value (HCT116 cells; Petroselinyl, 10 μM) was 824, the “% GFP silencing due” value ([2]; 5 μM, Ole tail) was 76% and the “% GFP silencing due” value ([2]; 5 μM, Pal tail) was 68%. The “% GFP silencing due” value ([2]; 5 μM, Pet tail) was 63%, the “percentage of gene editing, GFP fluorescence intensity decrease (% of reduction)” value ([2]; Myristoleyl, 5 μM, HeLa cells) was 29% and the “percentage of gene editing, GFP fluorescence intensity decrease (% of reduction)” value ([2]; Myristoleyl, 15 μM, Hela cells) was 86%. The “percentage of gene editing, GFP fluorescence intensity decrease (% of reduction)” value ([2]; Palmitoleyl, 5 μM, HeLa cells) was 18%, the “percentage of gene editing, GFP fluorescence intensity decrease (% of reduction)” value ([2]; Palmitoleyl, 10 μM, HeLa cells) was 68% and the “percentage of gene editing, GFP fluorescence intensity decrease (% of reduction)” value ([2]; Palmitoleyl, 15 μM, Hela cells) was 80%. The “percentage of gene editing, GFP fluorescence intensity decrease (% of reduction)” value [2, 3] was 85%.
